Measurements reported in patent US8999969B2, “Anti-RSV compounds” (Gilead Sciences, Inc., priority 2009, dated 2015).

The molecules below were run on RSV strain A2 (assay: in vitro cytoprotection assay against RSV in Hep2 cells). Details: human respiratory syncytial virus, HEp-2, 96 h; 1 uM compound; RSV-induced cytopathic effect in Hep2 cells, 4 days, Cell TiterGlo; read-out: RSV % inh. @ 1 uM.
Assay type: cell-based
Protocol: Antiviral activity against RSV was determined using an in vitro cytoprotection assay in Hep2 cells. […] The method used is similar to methods previously described in Chapman J et al., “RSV604 a novel inhibitor of respiratory syncytial virus replication,” Antimicrob Agents Chemother, 51(9):3346-53 (2007).
Hep2 cells were obtained from ATCC (Manassas, Va.) and maintained in MEM media supplemented with 10% fetal bovine serum and penicillin/streptomycin. Cells were passaged twice a week and kept at subconfluent stage. Commercial stock of RSV strain A2 (Advanced Biotechnologies, Columbia, Md.) was titered before compound testing to determine the appropriate dilution of the virus stock that generates desirable cytopathic effect in Hep2 cells.
For antiviral tests, Hep2 cells were seeded into 96-well plates 24 hours before the assay at a density of 3,000 cells/well. On a separate 96well plate, tested compounds were serially diluted in cell culture media. Eight concentrations in 3-fold serial dilution increments were prepared for each tested compound and 100 uL/well of each dilution was transferred in duplicate onto plates with seeded Hep2 cells. Subsequently, appropriate dilution of virus stock previously determined by titration was prepared in cell culture media and 100 uL/well was added to test plates containing cells and serially diluted compounds. Each plate included three wells of infected untreated cells and three wells of uninfected cells that served as 0% and 100% virus inhibition control, respectively. Following the infection with RSV, testing plates were incubated for 4 days in a tissue culture incubator. After the incubation, RSV-induced cytopathic effect was determined using a Cell TiterGlo reagent (Promega, Madison, Wis.) followed by a luminescence read-out. The percentage inhibition was calculated for each tested concentration relative to the 0% and 100% inhibition controls and the EC50 value for each compound was determined by non-linear regression as a concentration inhibiting the RSV-induced cytopathic effect by 50%. Ribavirin (purchased from Sigma, St. Louis, Mo.) was used as a positive control for antiviral activity.
With O=C(NC1CC1)c1cc2c(s1)-c1ccccc1N(C(=O)c1ccc(NC(=O)c3ccccc3I)cc1)CC2 [Example 2] the inhibition at 1 µM was 78%.
Molecule O=C(NC1CC1)c1cc2c(s1)-c1ccccc1N(C(=O)c1ccc(NC(=O)c3ccccc3-c3ccc(F)cc3)cc1)CC2 [Example 8] has an inhibition at 1 µM of 100%.
Work on O=C(NC1CC1)c1cc2c(s1)-c1ccccc1N(C(=O)c1ccc(NC(=O)c3ccncc3Br)cc1)CC2 [Example 4] yielded an inhibition at 1 µM of 78%.
O=C(NCCF)c1cc2c(s1)-c1ccccc1N(C(=O)c1ccc(NC(=O)c3cccnc3N3CCCC3)cc1)CC2 [Example 58] gave an inhibition at 1 µM of 100%.
For NS(=O)(=O)CCNC(=O)c1cc2c(s1)-c1ccccc1N(C(=O)c1ccc(NC(=O)c3cccnc3N3CCCC3)cc1)CC2 [Example 53], the inhibition at 1 µM was 1%.
With Cn1nccc1C(=O)Nc1ccc(C(=O)N2CCc3cc(C(=O)NC4CC4)sc3-c3ccccc32)cc1 [Example 29] the inhibition at 1 µM was 22%.
CC(C)(CO)NC(=O)c1cc2c(s1)-c1ccccc1N(C(=O)c1ccc(NC(=O)c3cccnc3N3CCCC3)cc1)CC2 [Example 56] was tested, and the inhibition at 1 µM was 93%.
Work on Cc1cc(C(=O)Nc2ccc(C(=O)N3CCc4cc(C(=O)NC5CC5)sc4-c4ccccc43)cc2)c(N2CCCC2)nn1 [Example 65] yielded an inhibition at 1 µM of 95%.
For O=C(Nc1ccc(C(=O)N2CCc3cc(C(=O)NC4CC4)sc3-c3ccccc32)cc1)c1cc(N2CCC2)ccn1 [Example 18], the inhibition at 1 µM was 98%.
With Cc1ccccc1C(=O)N1CCC(C(=O)Nc2ccc(C(=O)N3CCc4cc(C(=O)NC5CC5)sc4-c4ccccc43)cc2)CC1 [Example 28] the inhibition at 1 µM was 15%.
For Cc1cc(C(=O)Nc2ccc(C(=O)N3CCc4cc(C(=O)NC5CC5)sc4-c4ccccc43)cc2)c(N2CC(F)(F)C2)nn1 [Example 67], the inhibition at 1 µM was 98%.
O=C(NC1CC1)c1cc2c(s1)-c1ccccc1N(C(=O)c1ccc(NC(=O)c3cccnc3N3CC[C@@H](F)C3)cc1)CC2 [Example 38] was tested, and the inhibition at 1 µM was 99%.
O=C(NC1CC1)c1cc2c(s1)-c1ccccc1N(C(=O)c1ccc(NC(=O)c3cccnc3N3CCC3)cc1)CC2 [Example 46] was tested, and the inhibition at 1 µM was 98%.
With O=C(Nc1ccccn1)c1cc2c(s1)-c1ccccc1N(C(=O)c1ccc(NC(=O)c3cccnc3N3CCCC3)cc1)CC2 [Example 54] the inhibition at 1 µM was 99%.
In the case of O=C(NC1CC1)c1cc2c(s1)-c1ccccc1N(C(=O)c1ccc(NC(=O)c3cccnc3N3CC4(COC4)C3)cc1)CC2 [Example 10], the inhibition at 1 µM was 100%.
C[C@H]1CCCN1c1ncccc1C(=O)Nc1ccc(C(=O)N2CCc3cc(C(=O)NC4CC4)sc3-c3ccccc32)cc1 [Example 40] gave an inhibition at 1 µM of 98%.
In the case of O=C(NC1CC1)c1cc2c(s1)-c1ccccc1N(C(=O)c1ccc(NC(=O)c3cccnc3C(F)(F)F)cc1F)CC2 [Example 26], the inhibition at 1 µM was 47%.
In the case of O=C(NC1CC1)c1cc2c(s1)-c1ccccc1N(C(=O)c1ccc(NC(=O)c3cccnc3N3CC[C@H](F)C3)cc1)CC2 [Example 39], the inhibition at 1 µM was 94%.
O=C(NC1CC1)c1cc2c(s1)-c1ccccc1N(C(=O)c1ccc(NC(=O)c3cccnc3N3CC(F)(F)C3)cc1)CC2 [Example 7] showed an inhibition at 1 µM of 100%.
O=C(NC1CC1)c1cc2c(s1)-c1ccccc1N(C(=O)c1ccc(NC(=O)c3ccccc3N3CCCC3)cc1)CC2 [Example 3] gave an inhibition at 1 µM of 100%.
CC(C)c1ccccc1C(=O)Nc1ccc(C(=O)N2CCc3cc(C(=O)NC4CC4)sc3-c3ccccc32)cc1 [Example 13] gave an inhibition at 1 µM of 99%.
With NC(=O)c1cc2c(s1)-c1ccccc1N(C(=O)c1ccc(NC(=O)c3cccnc3N3CCCC3)cc1)CC2 [Example 61] the inhibition at 1 µM was 84%.
O=C(NC1CC1)c1cc2c(s1)-c1ccccc1N(C(=O)c1ccc(NC(=O)c3cccnc3N3CCC[C@H]3C(F)(F)F)cc1)CC2 [Example 42] was tested, and the inhibition at 1 µM was 99%.
In the case of O=C(Nc1ccc(C(=O)N2CCc3cc(C(=O)N4CCCC4)sc3-c3ccccc32)cc1)c1cccnc1N1CCCC1 [Example 49], the inhibition at 1 µM was 30%.
O=C(NCc1cccs1)c1cc2c(s1)-c1ccccc1N(C(=O)c1ccc(NC(=O)c3cccnc3N3CCCC3)cc1)CC2 [Example 48] gave an inhibition at 1 µM of 100%.
